Laboratory results: publication PMC3791137 (Journal of the American Chemical Society, 2013)

Columns and labels:
[1] = common buffers, physiological pH; cited from earlier work
[2] = system: NSCs; experiment: Sin-1-induced ZBR1 fluorescence change; type: cell-based, rat; settings: 100 μM Sin-1, first 15 min; vehicle 105 ± 7%
[3] = pH 9.5, excitation 572 nm; cited from earlier work

| SMILES | Half-life [1] | Fluorescence intensity of ZBR1 after Sin-1 [2] | Quantum yield (standard) [3] |
| --- | --- | --- | --- |
| N=c1c[n+](N2CCOCC2)[n-]o1 [Sin-1, 3-morpholinosydnonimine] | 14 to 26 min | 89 ± 4% |  |
| O=c1ccc2nc3ccc(O)cc3oc-2c1 [resorufin] |  |  | 0.74 |
